Experimental data published in PubChem BioAssay (NCI).
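Cultured in 96-well plates, cells were exposed to test compound for 48 hours across five concentrations. TGI marks complete inhibition of growth.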

Legend:
Test in all cases: inhibition of tumour cell growth, NCI panel, 48 h
NCI-H522 lung = system: NCI-H522 lung
LOX IMVI melanoma = system: LOX IMVI melanoma
A498 renal = system: A498 renal
DMS 114 small cell lung = system: DMS 114 small cell lung
SW-620 colon = system: SW-620 colon
786-0 renal = system: 786-0 renal
M19-MEL melanoma = system: M19-MEL melanoma
SNB-19 CNS = system: SNB-19 CNS
SK-MEL-28 melanoma = system: SK-MEL-28 melanoma
IGROV1 ovarian = system: IGROV1 ovarian
SF-539 CNS = system: SF-539 CNS
LXFL 529 NSCLC = system: LXFL 529 NSCLC
OVCAR-5 ovarian = system: OVCAR-5 ovarian
CCRF-CEM leukemia = system: CCRF-CEM leukemia
SK-MEL-5 melanoma = system: SK-MEL-5 melanoma
OVCAR-3 ovarian = system: OVCAR-3 ovarian
SN12C renal = system: SN12C renal
HOP-92 NSCLC = system: HOP-92 NSCLC
NCI-H226 lung = system: NCI-H226 lung
HCC-2998 colon = system: HCC-2998 colon
CAKI-1 renal = system: CAKI-1 renal
A549 NSCLC = system: A549 NSCLC
COLO 205 colon = system: COLO 205 colon
HL-60(TB) leukemia = system: HL-60(TB) leukemia
UO-31 renal = system: UO-31 renal
NCI-H460 lung = system: NCI-H460 lung
SK-OV-3 ovarian = system: SK-OV-3 ovarian
DMS 273 small cell lung = system: DMS 273 small cell lung
ACHN renal = system: ACHN renal
SF-268 CNS = system: SF-268 CNS
UACC-257 melanoma = system: UACC-257 melanoma
MOLT-4 leukemia = system: MOLT-4 leukemia
DLD-1 colon = system: DLD-1 colon
EKVX NSCLC = system: EKVX NSCLC
KM20L2 colon = system: KM20L2 colon
HCT-15 colon = system: HCT-15 colon
OVCAR-8 ovarian = system: OVCAR-8 ovarian
MALME-3M melanoma = system: MALME-3M melanoma
HT29 colon = system: HT29 colon
SK-MEL-2 melanoma = system: SK-MEL-2 melanoma
UACC-62 melanoma = system: UACC-62 melanoma
SNB-75 CNS = system: SNB-75 CNS
SR leukemia = system: SR leukemia
U251 CNS = system: U251 CNS
KM12 colon = system: KM12 colon
XF 498 CNS = system: XF 498 CNS
NCI-H23 lung = system: NCI-H23 lung
TK-10 renal = system: TK-10 renal
RXF 393 renal = system: RXF 393 renal
HCT-116 colon = system: HCT-116 colon
SF-295 CNS = system: SF-295 CNS
K-562 leukemia = system: K-562 leukemia
HOP-18 NSCLC = system: HOP-18 NSCLC
HOP-62 NSCLC = system: HOP-62 NSCLC
M14 melanoma = system: M14 melanoma
OVCAR-4 ovarian = system: OVCAR-4 ovarian
SNB-78 CNS = system: SNB-78 CNS

Measured: TGI

C=CCOC(C)n1c(C)c(Br)c(=O)[nH]c1=O (configuration not stated)
not listed: K-562 leukemia | HOP-18 NSCLC | HOP-62 NSCLC | M14 melanoma | OVCAR-4 ovarian | SNB-78 CNS
> 100 µM: all other assays above

COc1ccccc1-n1c(C)nc2ccccc2c1=O
not listed: XF 498 CNS
> 100 µM: all other assays above
